Patent US11618743B2, “Herbicidal compounds” (SYNGENTA PARTICIPATIONS AG, priority 2017, dated 2023)

Columns and labels:
Assay in all cases: Post-emergence efficacy, Method A
Assay type in all cases: in vivo
[1] = tested on: Digitaria sanguinalis (DIGSA); conditions: Application rate 500 g/Ha, evaluated after 13 days; for Control of weed species after post-emergence application, DIGSA: 100=total damage to plant, 0=no damage; for Control of weed species DIGSA after post-emergence application (100=total damage to plant; 0=no damage to plant): Method A
Experimental: (§1) Seeds of a variety of test species were sown in standard soil in pots. After cultivation for 14 days (post-emergence) under controlled conditions in a glasshouse (at 24/16° C., day/night; 14 hours light; 65% humidity), the plants were sprayed with an aqueous spray solution derived from the dissolution of the technical active ingredient formula (I) in a small amount of acetone and a special solvent and emulsifier mixture referred to as IF50 (11.12% Emulsogen EL360 TM+44.44% N-methylpyrrolidone+44.44% Dowanol DPM glycol ether), to create a 50 g/l solution which was then diluted to required concentration using 0.25% or 1% Empicol ESC70 (Sodium lauryl ether sulphate)+1% ammonium sulphate as diluent.
(§2) The test plants were then grown in a glasshouse under controlled conditions (at 24/16° C., day/night; 14 hours light; 65% humidity) and watered twice daily. After 13 days the test was evaluated (100=total damage to plant; 0=no damage to plant).
(§3) Ipomoea hederacea (IPOHE), Euphorbia heterophylla (EPHHL), Chenopodium album (CHEAL), Amaranthus palmeri (AMAPA), Lolium perenne (LOLPE), Digitaria sanguinalis (DIGSA), Eleusine indica (ELEIN), Echinochloa crus-galli (ECHCG), Setaria faberi (SETFA)

Setaria faberi (SETFA) = conditions: Application rate 500 g/Ha, evaluated after 13 days; for Control of weed species after post-emergence application, SETFA: 100=total damage to plant, 0=no damage; for Control of weed species SETFA after post-emergence application (100=total damage to plant; 0=no damage to plant): Method A
Experimental: as §1, §2, §3

Eleusine indica (ELEIN) = conditions: Application rate 500 g/Ha, evaluated after 13 days; for Control of weed species after post-emergence application, ELEIN: 100=total damage to plant, 0=no damage; for Control of weed species ELEIN after post-emergence application (100=total damage to plant; 0=no damage to plant): Method A
Experimental: as §1, §2, §3

[2] = tested on: Echinochloa crus-galli (ECHCG); conditions: Application rate 500 g/Ha, evaluated after 13 days; for Control of weed species after post-emergence application, ECHCG: 100=total damage to plant, 0=no damage; for Control of weed species ECHCG after post-emergence application (100=total damage to plant; 0=no damage to plant): Method A
Experimental: as §1, §2, §3

[3] = tested on: Amaranthus palmeri (AMAPA); conditions: Application rate 500 g/Ha, evaluated after 13 days; for Control of weed species after post-emergence application, AMAPA: 100=total damage to plant, 0=no damage; for Control of weed species AMAPA after post-emergence application (100=total damage to plant; 0=no damage to plant): Method A
Experimental: as §1, §2, §3

[4] = tested on: Chenopodium album (CHEAL); conditions: Application rate 500 g/Ha, evaluated after 13 days; for Control of weed species after post-emergence application, CHEAL: 100=total damage to plant, 0=no damage; for Control of weed species CHEAL after post-emergence application (100=total damage to plant; 0=no damage to plant): Method A
Experimental: as §1, §2, §3

[5] = tested on: Euphorbia heterophylla (EPHHL); conditions: Application rate 500 g/Ha, evaluated after 13 days; for Control of weed species after post-emergence application, EPHHL: 100=total damage to plant, 0=no damage; for Control of weed species EPHHL after post-emergence application (100=total damage to plant; 0=no damage to plant): Method A
Experimental: as §1, §2, §3

Compound: O=C(O)CC[n+]1ccc(-c2ncc(C(F)(F)F)cc2Cl)cn1.O=C([O-])C(F)(F)F [Compound A197]
- Control of weed species after post-emergence application, DIGSA [1]: 20
- Control of weed species after post-emergence application, SETFA (Setaria faberi (SETFA)): 0
- Control of weed species after post-emergence application, ELEIN (Eleusine indica (ELEIN)): 10
- Control of weed species after post-emergence application, ECHCG [2]: 0
- Control of weed species after post-emergence application, AMAPA [3]: 100
- Control of weed species after post-emergence application, CHEAL [4]: 10
- Control of weed species after post-emergence application, EPHHL [5]: 10

Compound: O=C(O)CC[n+]1ccc(-c2ccc(C(F)(F)F)nn2)cn1.O=C([O-])C(F)(F)F [Compound A126]
- Control of weed species DIGSA after post-emergence application (100=total damage to plant; 0=no damage to plant) [1]: 80
- Control of weed species SETFA after post-emergence application (100=total damage to plant; 0=no damage to plant) (Setaria faberi (SETFA)): 100
- Control of weed species ELEIN after post-emergence application (100=total damage to plant; 0=no damage to plant) (Eleusine indica (ELEIN)): 90
- Control of weed species ECHCG after post-emergence application (100=total damage to plant; 0=no damage to plant) [2]: 80
- Control of weed species AMAPA after post-emergence application (100=total damage to plant; 0=no damage to plant) [3]: 100
- Control of weed species CHEAL after post-emergence application (100=total damage to plant; 0=no damage to plant) [4]: 80
- Control of weed species EPHHL after post-emergence application (100=total damage to plant; 0=no damage to plant) [5]: 100

Compound: O=C(O)C(O)C[n+]1ccc(-c2ncccn2)cn1.O=C([O-])C(F)(F)F (stereo not shown) [Compound A180]
- Control of weed species after post-emergence application, DIGSA [1]: 60
- Control of weed species after post-emergence application, SETFA (Setaria faberi (SETFA)): 70
- Control of weed species after post-emergence application, ELEIN (Eleusine indica (ELEIN)): 90
- Control of weed species after post-emergence application, ECHCG [2]: 70
- Control of weed species after post-emergence application, AMAPA [3]: 100
- Control of weed species after post-emergence application, CHEAL [4]: 90
- Control of weed species after post-emergence application, EPHHL [5]: 80

Compound: Nc1cc(-c2cc[n+](CCC(=O)O)nc2)ncn1.O=C([O-])C(F)(F)F [Compound A163]
- Control of weed species after post-emergence application, DIGSA [1]: 50
- Control of weed species after post-emergence application, ELEIN (Eleusine indica (ELEIN)): 90
- Control of weed species after post-emergence application, ECHCG [2]: 40
- Control of weed species after post-emergence application, AMAPA [3]: 100
- Control of weed species after post-emergence application, CHEAL [4]: 60
- Control of weed species after post-emergence application, EPHHL [5]: 50

Compound: N#Cc1ccc(-c2cc[n+](CCC(=O)O)nc2)nc1.O=C([O-])C(F)(F)F [Compound A176]
- Control of weed species after post-emergence application, DIGSA [1]: 30
- Control of weed species after post-emergence application, SETFA (Setaria faberi (SETFA)): 40
- Control of weed species after post-emergence application, ELEIN (Eleusine indica (ELEIN)): 70
- Control of weed species after post-emergence application, ECHCG [2]: 30
- Control of weed species after post-emergence application, AMAPA [3]: 40
- Control of weed species after post-emergence application, CHEAL [4]: 30

Compound: O=C(O)CC[n+]1ccc(-c2cc(C(F)(F)F)ncn2)cn1.O=C([O-])C(F)(F)F [Compound A119]
- Control of weed species DIGSA after post-emergence application (100=total damage to plant; 0=no damage to plant) [1]: 40
- Control of weed species SETFA after post-emergence application (100=total damage to plant; 0=no damage to plant) (Setaria faberi (SETFA)): 40
- Control of weed species ELEIN after post-emergence application (100=total damage to plant; 0=no damage to plant) (Eleusine indica (ELEIN)): 30
- Control of weed species ECHCG after post-emergence application (100=total damage to plant; 0=no damage to plant) [2]: 30
- Control of weed species AMAPA after post-emergence application (100=total damage to plant; 0=no damage to plant) [3]: 100
- Control of weed species CHEAL after post-emergence application (100=total damage to plant; 0=no damage to plant) [4]: 100
- Control of weed species EPHHL after post-emergence application (100=total damage to plant; 0=no damage to plant) [5]: 70

Compound: CC(C[n+]1ccc(-c2ccncn2)cn1)C(=O)O.O=C([O-])C(F)(F)F (stereo not shown) [Compound A171]
- Control of weed species after post-emergence application, DIGSA [1]: 60
- Control of weed species after post-emergence application, SETFA (Setaria faberi (SETFA)): 60
- Control of weed species after post-emergence application, ELEIN (Eleusine indica (ELEIN)): 80
- Control of weed species after post-emergence application, ECHCG [2]: 60
- Control of weed species after post-emergence application, AMAPA [3]: 100
- Control of weed species after post-emergence application, CHEAL [4]: 80

Compound: O=C(O)CC[n+]1ccc(-c2ccnc(C(F)(F)F)n2)cn1.O=C([O-])C(F)(F)F [Compound A118]
- Control of weed species DIGSA after post-emergence application (100=total damage to plant; 0=no damage to plant) [1]: 90
- Control of weed species SETFA after post-emergence application (100=total damage to plant; 0=no damage to plant) (Setaria faberi (SETFA)): 70
- Control of weed species ELEIN after post-emergence application (100=total damage to plant; 0=no damage to plant) (Eleusine indica (ELEIN)): 70
- Control of weed species ECHCG after post-emergence application (100=total damage to plant; 0=no damage to plant) [2]: 40
- Control of weed species AMAPA after post-emergence application (100=total damage to plant; 0=no damage to plant) [3]: 80
- Control of weed species CHEAL after post-emergence application (100=total damage to plant; 0=no damage to plant) [4]: 80
- Control of weed species EPHHL after post-emergence application (100=total damage to plant; 0=no damage to plant) [5]: 90

Compound: O=C(O)CC[n+]1ccc(-c2ncc(C(F)(F)F)cn2)cn1.O=C([O-])C(F)(F)F [Compound A129]
- Control of weed species DIGSA after post-emergence application (100=total damage to plant; 0=no damage to plant) [1]: 60
- Control of weed species SETFA after post-emergence application (100=total damage to plant; 0=no damage to plant) (Setaria faberi (SETFA)): 60
- Control of weed species ELEIN after post-emergence application (100=total damage to plant; 0=no damage to plant) (Eleusine indica (ELEIN)): 40
- Control of weed species ECHCG after post-emergence application (100=total damage to plant; 0=no damage to plant) [2]: 90
- Control of weed species AMAPA after post-emergence application (100=total damage to plant; 0=no damage to plant) [3]: 70
- Control of weed species CHEAL after post-emergence application (100=total damage to plant; 0=no damage to plant) [4]: 50
- Control of weed species EPHHL after post-emergence application (100=total damage to plant; 0=no damage to plant) [5]: 70

Compound: O=C(O)c1ccc(C[n+]2ccc(-c3ncccn3)cn2)cc1.O=C([O-])C(F)(F)F [Compound A228]
- Control of weed species after post-emergence application, DIGSA [1]: 20
- Control of weed species after post-emergence application, SETFA (Setaria faberi (SETFA)): 10
- Control of weed species after post-emergence application, ELEIN (Eleusine indica (ELEIN)): 10
- Control of weed species after post-emergence application, ECHCG [2]: 10
- Control of weed species after post-emergence application, AMAPA [3]: 80
- Control of weed species after post-emergence application, CHEAL [4]: 60

Compound: Cc1nccc(-c2cc[n+](CCC(=O)O)nc2)n1.O=C([O-])C(F)(F)F [Compound A55]
- Control of weed species DIGSA after post-emergence application (100=total damage to plant; 0=no damage to plant) [1]: 100
- Control of weed species SETFA after post-emergence application (100=total damage to plant; 0=no damage to plant) (Setaria faberi (SETFA)): 100
- Control of weed species ELEIN after post-emergence application (100=total damage to plant; 0=no damage to plant) (Eleusine indica (ELEIN)): 100
- Control of weed species ECHCG after post-emergence application (100=total damage to plant; 0=no damage to plant) [2]: 90
- Control of weed species CHEAL after post-emergence application (100=total damage to plant; 0=no damage to plant) [4]: 80
- Control of weed species EPHHL after post-emergence application (100=total damage to plant; 0=no damage to plant) [5]: 70

Compound: O=C([O-])C(F)(F)F.O=P(O)(O)CCC[n+]1ccc(-c2ncccn2)cn1 [Compound A233]
- Control of weed species after post-emergence application, DIGSA [1]: 60
- Control of weed species after post-emergence application, SETFA (Setaria faberi (SETFA)): 70
- Control of weed species after post-emergence application, ELEIN (Eleusine indica (ELEIN)): 50
- Control of weed species after post-emergence application, ECHCG [2]: 60
- Control of weed species after post-emergence application, AMAPA [3]: 100
- Control of weed species after post-emergence application, CHEAL [4]: 100

Compound: O=C([O-])C(F)(F)F.OCC[n+]1ccc(-c2ncccn2)cn1 [Compound A195, 2-(4-pyrimidin-2-ylpyridazin-1-ium-1-yl)ethanol 2,2,2-trifluoroacetate]
- Control of weed species after post-emergence application, DIGSA [1]: 20
- Control of weed species after post-emergence application, ELEIN (Eleusine indica (ELEIN)): 10
- Control of weed species after post-emergence application, ECHCG [2]: 10
- Control of weed species after post-emergence application, CHEAL [4]: 60

Compound: N[C@@H](CC[n+]1ccc(-c2ncccn2)cn1)C(=O)O.O=C(O)C(F)(F)F.O=C([O-])C(F)(F)F [Compound A201, [(1S)-1-carboxy-3-(4-pyrimidin-2-ylpyridazin-1-ium-1-yl)propyl]ammonium 2,2,2-trifluoroacetate]
- Control of weed species after post-emergence application, DIGSA [1]: 80
- Control of weed species after post-emergence application, SETFA (Setaria faberi (SETFA)): 80
- Control of weed species after post-emergence application, ECHCG [2]: 70

Compound: COC(=O)c1ccc(C[n+]2ccc(-c3ncccn3)cn2)cc1.O=C([O-])C(F)(F)F [Compound A229]
- Control of weed species after post-emergence application, DIGSA [1]: 20
- Control of weed species after post-emergence application, SETFA (Setaria faberi (SETFA)): 10
- Control of weed species after post-emergence application, ELEIN (Eleusine indica (ELEIN)): 0
- Control of weed species after post-emergence application, ECHCG [2]: 0
- Control of weed species after post-emergence application, AMAPA [3]: 10
- Control of weed species after post-emergence application, CHEAL [4]: 0
